According to patent publication US12655072B2, “Formulation system for compositions for enhancing nitrogen stabilizers” (Verdesian Life Sciences U.S., LLC, priority 2020, dated 2026):

How the values were obtained:
[1] = cited from earlier work
[2] = system: corn hybrid AG 8088 VT PRO; assay: Field study, no-till rainfed corn: harvest, dry plant mass, N content; type: in vivo; conditions: 135 kg/ha of N
Protocol: A field study was carried out of an area under no-till system that was cultivated with rainfed corn (i.e., without irrigation). The corn cultured was a corn hybrid AG 8088 VT PRO (High yield) with a Standak Top of 100 mL/ha and a plant density of 77,000 plants/ha. The following three formulations were applied at three different rates ([…]) to a field: • Trident Formulation (10-10-10; % polymer-% DCD-% NBPT) • Trident V Formulation (5-5-15; % polymer-% DCD-% NBPT) • Trident N Formulation (5-20-5; % polymer-% DCD-% NBPT)
As a control, plants were only treated with the nitrogen fertilizer (e.g., UAN with 30%-45% N) or were left untreated.
The nitrogen fertilizer was applied with 135 kg/ha of N, which corresponds to a dose of 75N/bu for 10.8 ton/ha of maize. In addition a typical herbicide, fungicide and insecticide program was adopted to remove all study variability due to weeds, diseases or insects throughout the study period;
(§1) The activity of nitrate reductase enzyme at V2-V3 and flowering (first fully developed leaf, three plants per plot) was measured. In addition, soil collection was performed for the determination of N—NO3 and N—NH4 up to 30 days after the application of the cover. This methodology was adapted by Cataldo et al (1975) and Kemper; Zewers (1986). Soil Fertility Center (CEFERT). Growth analysis was performed on dry plant mass every 30 days. Harvesting was performed at physiological maturity. The plants of the three central lines of each plot was harvested excluding 1.0 meter at each end. The rows were measured and the number of plants and ears per row harvested were counted. After harvesting, manual threshing was performed and the 100 grain mass was determined as well as the yield of the crop. Harvest results were estimated for kg/ha and bu/acre.

soil = assay: Field study: soil collection for determination of N-NO3 and N-NH4; type: in vivo
Protocol: as §1, with “N-NO3” for “N—NO3”, “N-NH4” for “N—NH4”, “([…]).” for “(CEFERT).”

nitrate reductase enzyme = assay: Field study: activity of nitrate reductase enzyme in the leaves; type: in vivo, corn
Protocol: as §1, with “N-NO3” for “N—NO3”, “N-NH4” for “N—NH4”, “([…]).” for “(CEFERT).”

[3] = first collection within 30 days
[4] = second collection within 30 days

SMILES | solubility in water [1] | MSCaule (production of dry mass of corn plants: corn plant stems) [2] [g plant−1] | MSEspiga [2] [g plant−1] | MSFolhas (production of dry mass of corn plants: leaves) [2] [g plant−1] | MSTotal (production of total dry mass of corn plants) [2] [g plant−1] | N Folha (leaf nitrogen content) [2] [dag kg−1] | N Grão [2] [kg ha−1] | grains of corn on the corn ear (FIG. 3) ([2]; compared to untreated) | 1 NH4 (NH4 values in the soil) (soil; [3]) [mg/kg] | 1 NO3 (NO3 values in the soil) (soil; [3]) [mg/kg] | 2 NH4 (NH4 values in the soil) (soil; [4]) [mg/kg] | 2 NO3 (NO3 values in the soil) (soil; [4]) [mg/kg] | 1 ANR (activity of the enzyme nitrate reductase in the leaves) (nitrate reductase enzyme; first measurement (measured at V2-V3 and flowering)) | 2 ANR (activity of the enzyme nitrate reductase in the leaves) (nitrate reductase enzyme; second measurement (measured at V2-V3 and flowering))
N#CN=C(N)N [dicyandiamide] | about 41 g/l |  |  |  |  |  |  |  |  |  |  |  |  | 
NC(N)=O [Urea N, urea] |  | 148.04 | 191.75 | 80.28 | 420.06 | 2.24 | 115.04 | exhibited more grains of corn compared to ears that were untreated | 31.97 | 34.16 | 25.93 | 27.07 | 137.51 | 74.82
